Results published in patent US20120053235A1, “Dihydromyricetin as an IKK-beta inhibitor used for treatment of arthritis, cancer and autoimmune conditions, and other diseases or disorders” (HONG KONG BAPTIST UNIVERSITY, priority 2010, published 2012).

Key:
[1] = tested on: collagen II induced arthritis in female Wistar rats; experiment: Collagen II induced arthritis (CIA); assay type: in vivo
Method: Collagen II solution (collagen, 2 mg/ml in 0.05M acetic acid, Chondrex 20022, Redmond, Wash., USA) was emulsified with an equal volume of incomplete Freund's adjuvant (IFA, Chondrex 7002, Redmond, Wash., USA) at 4° C. using a high-speed homogenizer. In the experiment of CIA, DMY was encapsulated with HP-CD (1:8.48) and then dissolved in the normal saline with drug concentrations of 50 and 100 mg/kg body weight. Rats were intradermally injected at the base of the tail with 100 μl collagen/incomplete Freund's adjuvant (IFA) emulsion containing […] of collagen II by the use of a glass syringe equipped with a locking hub and a 27-G needle. On day 7 after the primary immunization, all the rats were given a booster injection of 100 μg of collagen II in IFA. On the day after the onset of arthritis (day 13), the CIA rats were exposed to a daily intraperitoneal administration of DMY (50 and 100 mg/kg) until day 30 of the study. DEX (0.1 mg/kg, one per day), MTX (3.75 mg/kg, twice per week), and indomethacin (1 mg/kg, one per day) were used as positive reference drugs. The rats were inspected daily from the onset of arthritis characterized by edema and/or erythema in the paws. The incidence and severity of arthritis were evaluated using an arthritic scoring system, and bi-hind paw volumes and body weight were measured every 2 days started on the day when the arthritic signs were firstly visible (day 13). In the arthritic scoring system, lesions (i.e., the clinical arthritic signs) of the four paws of each rat were graded from 0 to 4 according to the extent of both edema and erythema of the periarticular tissues. As such, 16 was the potential maximum of the combined arthritic scores per animal. The hind paw volumes were measured using a plethysmometer chamber (7140 UGO. Basile, Comerio, Italy) and expressed as the mean volume change of both hind paws of the rats. Body weight of the rats was monitored with a 0.1 g precision balance (Sartorius AG, Goettingen, Germany). On day 30, all rats were sacrificed with liver, spleen and thymus being collected and weighted. The organ index for a specific organ is equal to the ratio of the weight of that organ to a body weight of 100 g.

[2] = tested on: NF-κB nuclear translocation in human T lymphocytes; experiment: NF-κB nuclear translocation (p65 Western blot of nuclear proteins); assay type: cell-based; details: pretreated 1 hour, 20 ng/ml PMA plus 1 μM ionomycin 120 minutes; FIG. 6A
Method: Human T lymphocytes (6×10^6/well) were pretreated with DMY for 1 hour, and subsequently stimulated with 20 ng/ml PMA plus 1 μM ionomycin for 120 minutes. The cells were then harvested and washed with PBS twice. The nuclear proteins of cells were prepared by using NucBuster™ Reagents (Novagen, USA). The washed cells were re-suspended using 60 μl NucBuster™ Reagent for […] of packed cells and processed twice by vortexing for 15 seconds, and followed by incubation on ice for 5 minutes and second vortexing for 15 seconds, and finally centrifuged at 16000 g for 5 minutes. The supernatants containing cytoplasmic protein were harvested, and then the cell pellets were re-suspended in 45 μl of NucBuster Extraction Reagent 2. The same vortexing, icing, and repeated vortexing procedures were repeated once to prepare the nuclear proteins of the cells.
Protein concentrations were determined by using Bio-Rad Protein assay. Equal amounts of nuclear proteins or whole-cell lysates were analyzed by 10% SDS-PAGE. After electrophoresis, the proteins were electro-transferred to the nitrocellulose membranes. After proteins were transferred, the membranes were blocked by 5% dried milk for 60 minutes and then washed three times for 5 min in each washing interval with Tris Buffered Saline with Tween 20 (TBS-T). […]

[3] = tested on: c-Fos nuclear translocation in human T lymphocytes; experiment: c-Fos nuclear translocation assay (Western blot); assay type: cell-based; details: pretreated 1 hour, PMA plus ionomycin 120 minutes
Method: For c-Jun and c-Fos nuclear translocation assays, the human T lymphocytes (6×10^6/well) were pretreated with DMY for 1 hour, and then stimulated with 20 ng/ml PMA plus […] ionomycin for 120 minutes. After the cells were harvested and washed with PBS twice, the nuclear proteins of cells were then prepared using NucBuster™ Reagents. Afterwards, the washed cells were re-suspended using 60 μl NucBuster™ Reagent 1 per 30 μl of packed cells and processed twice by vortexing for 15 seconds, and followed by the incubation on ice for 5 minutes and second vortexing for 15 seconds, and finally centrifuged at 16000 g for 5 minutes. The supernatants containing cytoplasmic proteins were discarded; the cell pellets were re-suspended in 45 μl of NucBuster Extraction Reagent 2. The same vortexing, icing, and repeated vortexing steps were repeated once to prepare the nuclear proteins of the cells.
Protein concentrations were determined by using Bio-Rad Protein assay. Equal amounts of nuclear proteins or whole-cell lysates were analyzed by 10% SDS-PAGE. After electrophoresis, the proteins were electro-transferred to the nitrocellulose membranes. […]

[4] = tested on: JNK phosphorylation; experiment: Phosphorylation of MAPKs (Western blot): JNK; assay type: cell-based, human; details: PMA plus ionomycin 10 minutes; FIG. 7
Method: For determination of the phosphorylation of mitogen-activated protein kinases expression, the cells were stimulated by 20 ng/ml PMA plus […] ionomycin for 10 minutes. The whole-cell lysates were prepared by lysing the harvested T cells with lysis buffer (50 mM Tris-HCl, pH 7.5, 250 mM NaCl, 5 mM EDTA, 1 mM DTT, 1% Triton, 50 mM NaF, 1 mM sodium orthovanadate, 0.5 mM PMSF and 1× protease inhibitor mix, Roche).
Protein concentrations were determined by using Bio-Rad Protein assay. Equal amounts of nuclear proteins or whole-cell lysates were analyzed by 10% SDS-PAGE. After electrophoresis, the proteins were electro-transferred to the nitrocellulose membranes. After proteins were transferred, the membranes were blocked by 5% dried milk for 60 minutes and then washed three times for 5 min in each washing interval with TBS-T. The membranes were incubated with corresponding primary antibodies overnight at 4° C. and then washed with three times with TBS-T. Afterwards, the membranes were incubated again with HRP-conjugated secondary antibodies for 60 minutes. The blots were developed using the ECL.

[5] = CIA rats, daily intraperitoneal 50 and 100 mg/kg, day 13 to day 30, vs vehicle-treated, FIGS. 10A and B

O=C1c2c(O)cc(O)cc2O[C@H](c2cc(O)c(O)c(O)c2)[C@H]1O [DMY, dihydromyricetin]
ameliorative effect compared with MTX ([1]; CIA rats, DMY 100 mg/kg, MTX 3.75 mg/kg twice per week): better than that of MTX
arthritic scores [1, 5]: significantly reduced
hind paw volume [1, 5]: significantly reduced
organ indexes of spleen and/or thymus ([1]; rat, in vivo): no adverse effect
NF-κB nuclear translocation [2]: significantly suppressed
nuclear translocation of c-Fos [3]: suppress nuclear translocation
JNK phosphorylation [4]: suppressed
